Values quoted from earlier work in patent US12527745B2, “Pharmaceutical dosage form for an emulsion of simethicone and loperamide” (R.P. SCHERER TECHNOLOGIES, LLC, priority 2018, dated 2026).

Details: single surfactant

Row | Substance | HLB
1 | Polysorbate 80 | 15
2 | sorbitan mono-oleate | 4.3
